Results: ChEMBL document CHEMBL1255272, “In vitro activity of AR-709 against Streptococcus pneumoniae” (2008)
≈ marks a conversion by molar mass, not a printed value. One block for each compound: values may come before it.

Legend:
Type in all cases: functional
Streptococcus pneumoniae [1] = experiment: Antibacterial activity against Streptococcus pneumoniae by microdilution method
Streptococcus pneumoniae [2] = experiment: Antibacterial activity against Streptococcus pneumoniae ATCC 49619 by microdilution method
Streptococcus pneumoniae [3] = experiment: Antibacterial activity against amoxicillin-clavulanic acid susceptible Streptococcus pneumoniae by microdilution method
Streptococcus pneumoniae [4] = experiment: Antibacterial activity against penicillin resistant Streptococcus pneumoniae by microdilution method
Streptococcus pneumoniae [5] = experiment: Antibacterial activity against cotrimoxazole intermediate Streptococcus pneumoniae by microdilution method
Streptococcus pneumoniae [6] = experiment: Antibacterial activity against multidrug resistant Streptococcus pneumoniae by microdilution method
Streptococcus pneumoniae [7] = experiment: Antibacterial activity against penicillin intermediate Streptococcus pneumoniae by microdilution method
Streptococcus pneumoniae [8] = experiment: Antibacterial activity against amoxicillin-clavulanic acid resistant Streptococcus pneumoniae by microdilution method
Streptococcus pneumoniae [9] = experiment: Antibacterial activity against cotrimoxazole resistant Streptococcus pneumoniae by microdilution method
Streptococcus pneumoniae [10] = experiment: Antibacterial activity against azithromycin susceptible Streptococcus pneumoniae by microdilution method
Streptococcus pneumoniae [11] = experiment: Antibacterial activity against azithromycin resistant Streptococcus pneumoniae by microdilution method
Streptococcus pneumoniae [12] = experiment: Antibacterial activity against cotrimoxazole susceptible Streptococcus pneumoniae by microdilution method
Streptococcus pneumoniae [13] = experiment: Antibacterial activity against penicillin susceptible Streptococcus pneumoniae by microdilution method
Streptococcus pneumoniae [14] = experiment: Antibacterial activity against Streptococcus pneumoniae assessed as susceptible isolates by microdilution method in presence of beta lactamase inhibitor clavulanic acid
Streptococcus pneumoniae [15] = experiment: Antibacterial activity against Streptococcus pneumoniae assessed as resistant isolates by microdilution method
Streptococcus pneumoniae [16] = experiment: Antibacterial activity against Streptococcus pneumoniae by microdilution method in presence of beta lactamase inhibitor clavulanic acid
Streptococcus pneumoniae [17] = experiment: Antibacterial activity against Streptococcus pneumoniae assessed as susceptible isolates by microdilution method
Streptococcus pneumoniae [18] = experiment: Antibacterial activity against Streptococcus pneumoniae assessed as resistant isolates by microdilution method in presence of beta lactamase inhibitor clavulanic acid

Structure (SMILES): COc1cc(Cc2cnc(N)nc2N)c2cc(Cc3c(C(=O)N(C)C)[nH]c4ccc(Cl)cc34)oc2c1OC
- MIC50 (Streptococcus pneumoniae [1]): 0.03 µg/mL (≈ 0.0561 µM)
- MIC90 (Streptococcus pneumoniae [1]): 0.25 µg/mL (≈ 0.467 µM)
- MIC (Streptococcus pneumoniae [2]): ≤ 0.015 µg/mL
- MIC50 (Streptococcus pneumoniae [3]): ≤ 0.015 µg/mL
- MIC90 (Streptococcus pneumoniae [3]): 0.06 µg/mL
- MIC50 (Streptococcus pneumoniae [4]): 0.06 µg/mL (≈ 0.112 µM)
- MIC90 (Streptococcus pneumoniae [4]): 0.25 µg/mL (≈ 0.467 µM)
- MIC50 (Streptococcus pneumoniae [5]): ≤ 0.015 µg/mL
- MIC90 (Streptococcus pneumoniae [5]): 0.06 µg/mL (≈ 0.112 µM)
- MIC50 (Streptococcus pneumoniae [6]): 0.12 µg/mL (≈ 0.224 µM)
- MIC90 (Streptococcus pneumoniae [6]): 0.25 µg/mL (≈ 0.467 µM)
- MIC50 (Streptococcus pneumoniae [7]): 0.03 µg/mL (≈ 0.0561 µM)
- MIC90 (Streptococcus pneumoniae [7]): 0.12 µg/mL (≈ 0.224 µM)
- MIC50 (Streptococcus pneumoniae [8]): 0.06 µg/mL
- MIC90 (Streptococcus pneumoniae [8]): 0.25 µg/mL
- MIC50 (Streptococcus pneumoniae [9]): 0.12 µg/mL (≈ 0.224 µM)
- MIC90 (Streptococcus pneumoniae [9]): 0.25 µg/mL (≈ 0.467 µM)
- MIC50 (Streptococcus pneumoniae [10]): ≤ 0.015 µg/mL
- MIC90 (Streptococcus pneumoniae [10]): 0.12 µg/mL (≈ 0.224 µM)
- MIC50 (Streptococcus pneumoniae [11]): 0.06 µg/mL (≈ 0.112 µM)
- MIC90 (Streptococcus pneumoniae [11]): 0.25 µg/mL (≈ 0.467 µM)
- MIC50 (Streptococcus pneumoniae [12]): ≤ 0.015 µg/mL
- MIC90 (Streptococcus pneumoniae [12]): 0.03 µg/mL (≈ 0.0561 µM)
- MIC50 (Streptococcus pneumoniae [13]): ≤ 0.015 µg/mL
- MIC90 (Streptococcus pneumoniae [13]): ≤ 0.015 µg/mL

Structure (SMILES): CC1(C)S[C@@H]2[C@H](NC(=O)[C@H](N)c3ccc(O)cc3)C(=O)N2[C@H]1C(=O)O [AMOXICILLIN]
- MIC50 (Streptococcus pneumoniae [1]): 0.25 µg/mL (≈ 0.684 µM)
- MIC90 (Streptococcus pneumoniae [1]): 4 µg/mL (≈ 10.9 µM)
- Activity (Streptococcus pneumoniae [14]): 55%
- Activity (Streptococcus pneumoniae [15]): 39.7%
- MIC50 (Streptococcus pneumoniae [16]): 0.25 µg/mL
- MIC90 (Streptococcus pneumoniae [16]): 4 µg/mL
- Activity (Streptococcus pneumoniae [17]): 55%
- Activity (Streptococcus pneumoniae [18]): 39.1%

Structure (SMILES): CC[C@H]1OC(=O)[C@H](C)[C@@H](O[C@H]2C[C@@](C)(OC)[C@@H](O)[C@H](C)O2)[C@H](C)[C@@H](O[C@@H]2O[C@H](C)C[C@H](N(C)C)[C@H]2O)[C@](C)(O)C[C@@H](C)CN(C)[C@H](C)[C@@H](O)[C@]1(C)O [AZITHROMYCIN]
- MIC50 (Streptococcus pneumoniae [1]): 0.12 µg/mL (≈ 0.16 µM)
- MIC90 (Streptococcus pneumoniae [1]): > 8 µg/mL
- Activity (Streptococcus pneumoniae [15]): 37.7%
- Activity (Streptococcus pneumoniae [17]): 62.3%

Structure (SMILES): COc1c(N2CCNC(C)C2)c(F)cc2c(=O)c(C(=O)O)cn(C3CC3)c12 (stereo not given) [GATIFLOXACIN]
- MIC50 (Streptococcus pneumoniae [1]): 0.25 µg/mL (≈ 0.666 µM)
- MIC90 (Streptococcus pneumoniae [1]): 0.25 µg/mL (≈ 0.666 µM)
- Activity (Streptococcus pneumoniae [15]): 0.7%
- Activity (Streptococcus pneumoniae [17]): 98.7%

Structure (SMILES): CC1(C)S[C@@H]2[C@H](NC(=O)Cc3ccccc3)C(=O)N2[C@H]1C(=O)O [PENICILLIN G]
- MIC50 (Streptococcus pneumoniae [1]): 0.25 µg/mL (≈ 0.748 µM)
- MIC90 (Streptococcus pneumoniae [1]): 2 µg/mL (≈ 5.98 µM)
- Activity (Streptococcus pneumoniae [15]): 38.4%
- Activity (Streptococcus pneumoniae [17]): 41.7%

Structure (SMILES): CC[C@H]1OC(=O)[C@H](C)C(=O)[C@H](C)[C@@H](O[C@@H]2O[C@H](C)C[C@H](N(C)C)[C@H]2O)[C@](C)(OC)C[C@@H](C)C(=O)[C@H](C)[C@H]2N(CCCCn3cnc(-c4cccnc4)c3)C(=O)O[C@]12C [TELITHROMYCIN]
- MIC90 (Streptococcus pneumoniae [1]): 0.5 µg/mL (≈ 0.616 µM)
- Activity (Streptococcus pneumoniae [15]): 0.7%
- Activity (Streptococcus pneumoniae [17]): 98%

- MIC50 (Streptococcus pneumoniae [1]): 4 µg/mL (≈ 13.8 µM)
- MIC90 (Streptococcus pneumoniae [1]): > 32 µg/mL
Structure (SMILES): COc1cc(Cc2cnc(N)nc2N)cc(OC)c1OC [TRIMETHOPRIM]
